Where two headings read alike, the source gives them in different places.
How the values were obtained:
Assay in all cases: Test B pre-/postemergence plant response
Format in all cases: in vivo
[1] = test system: common (oilseed) sunflower (Helianthus annuus); settings: Preemergence
Outline: (§1)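 Visual scoring from 0 (no effect) to 100 (complete control) against untreated controls was done 13 to 15 days after greenhouse treatment. Chemicals were formulated in a surfactant-containing non-phytotoxic solvent and applied to soil preemergence or to 1- to 4-leaf (2-18 cm) plants postemergence.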

[2] = test system: Russian thistle (Salsola iberica); settings: Preemergence
Outline: as §1

[3] = test system: downy bromegrass (Bromus tectorum); settings: for Bromegrass, Downy plant response rating: 8 g ai/ha; for pest or weed control at 16 g/ha / pest or weed control at 31 g/ha / pest or weed control at 62 g/ha: Bromus tectorum, read-out: Plant response rating, Bromegrass, Downy; for pest or weed control at 16 g/ha: 16 g ai/ha; for pest or weed control at 31 g/ha: 31 g ai/ha; for pest or weed control at 62 g/ha: 62 g ai/ha
Outline: as §1

[4] = test system: cocklebur (Xanthium strumarium); settings: for Cocklebur plant response rating: 8 g ai/ha; for pest or weed control at 16 g/ha / pest or weed control at 31 g/ha / pest or weed control at 62 g/ha: Xanthium strumarium, read-out: Plant response rating, Cocklebur; for pest or weed control at 16 g/ha: 16 g ai/ha; for pest or weed control at 31 g/ha: 31 g ai/ha; for pest or weed control at 62 g/ha: 62 g ai/ha
Outline: as §1

soybean (Glycine max) = settings: for Soybean plant response rating: 8 g ai/ha; for plant injury at 16 g/ha: 16 g ai/ha; for plant injury at 62 g/ha: 62 g ai/ha
Outline: as §1

[5] = test system: common ragweed (Ambrosia elation); settings: for Ragweed plant response rating: 8 g ai/ha; for pest or weed control at 16 g/ha / pest or weed control at 31 g/ha / pest or weed control at 62 g/ha: Ambrosia, read-out: Plant response rating, Ragweed; for pest or weed control at 16 g/ha: 16 g ai/ha; for pest or weed control at 31 g/ha: 31 g ai/ha; for pest or weed control at 62 g/ha: 62 g ai/ha
Outline: as §1

[6] = test system: catchweed bedstraw (Galium aparine); settings: Preemergence
Outline: as §1

[7] = test system: surinam grass (Brachiaria decumbens); settings: for Surinam Grass plant response rating: 8 g ai/ha; for pest or weed control at 16 g/ha: 16 g ai/ha; for pest or weed control at 62 g/ha: 62 g ai/ha
Outline: as §1

[8] = test system: goosegrass (Eleusine indica); settings: for Goosegrass plant response rating: 8 g ai/ha; for pest or weed control at 16 g/ha / pest or weed control at 31 g/ha / pest or weed control at 62 g/ha: Eleusine indica, read-out: Plant response rating, Goosegrass; for pest or weed control at 16 g/ha: 16 g ai/ha; for pest or weed control at 31 g/ha: 31 g ai/ha; for pest or weed control at 62 g/ha: 62 g ai/ha
Outline: as §1

[9] = test system: large crabgrass (Digitaria sanguinalis); settings: for Crabgrass, Large plant response rating: 8 g ai/ha; for pest or weed control at 16 g/ha / pest or weed control at 31 g/ha / pest or weed control at 62 g/ha: Digitaria sanguinalis, read-out: Plant response rating, Crabgrass, Large; for pest or weed control at 16 g/ha: 16 g ai/ha; for pest or weed control at 31 g/ha: 31 g ai/ha; for pest or weed control at 62 g/ha: 62 g ai/ha
Outline: as §1

[10] = test system: Italian ryegrass (Lolium multiflorum); settings: for Ryegrass, Italian plant response rating: 8 g ai/ha; for pest or weed control at 16 g/ha / pest or weed control at 31 g/ha / pest or weed control at 62 g/ha: Lolium multiflorum, read-out: Plant response rating, Ryegrass, Italian; for pest or weed control at 16 g/ha: 16 g ai/ha; for pest or weed control at 31 g/ha: 31 g ai/ha; for pest or weed control at 62 g/ha: 62 g ai/ha
Outline: as §1

[11] = test system: pigweed (Amaranthus retroflexus); settings: for Pigweed plant response rating: 8 g ai/ha; for pest or weed control at 16 g/ha / pest or weed control at 31 g/ha / pest or weed control at 62 g/ha: Amaranthus retroflexus, read-out: Plant response rating, Pigweed; for pest or weed control at 16 g/ha: 16 g ai/ha; for pest or weed control at 31 g/ha: 31 g ai/ha; for pest or weed control at 62 g/ha: 62 g ai/ha
Outline: as §1

kochia (Kochia scoparia) = settings: for Kochia plant response rating: 8 g ai/ha; for Plant response rating, Kochia: Postemergence
Outline: as §1

[12] = test system: woolly cupgrass (Eriochloa villosa); settings: for Cupgrass, Woolly plant response rating: 8 g ai/ha; for pest or weed control at 16 g/ha / pest or weed control at 31 g/ha / pest or weed control at 62 g/ha: Eriochloa villosa, read-out: Plant response rating, Cupgrass, Woolly; for pest or weed control at 16 g/ha: 16 g ai/ha; for pest or weed control at 31 g/ha: 31 g ai/ha; for pest or weed control at 62 g/ha: 62 g ai/ha
Outline: as §1

[13] = post-emergence, Postemergence, scale 0 to 100
[14] = post-emergence, Postemergence, scale 0 to 100, 0 no effect, 100 complete control
[15] = pre-emergence, Preemergence, scale 0 to 100 (0 no effect, 100 complete control)
[16] = pre-emergence, Preemergence, 0 to 100 scale, 0 no effect, 100 complete control
[17] = pre-emergence, Preemergence, scale 0 to 100

Structure (SMILES): CCc1c(C)c(-c2ccc(Cl)cc2)nn1-c1c(O)cnn(C)c1=O [Compound 26, 4-[3-(4-chlorophenyl)-5-ethyl-4-methyl-1H-pyrazol-1-yl]-5-hydroxy-2-methyl-3(2H)-pyridazinone]
- pest or weed control at 16 g/ha ([1]; Helianthus annuus, pre-emergence, 16 g ai/ha, scale 0 to 100 (0 no effect, 100 complete control), read-out: Plant response rating, Sunflower): 0%
- pest or weed control at 31 g/ha ([1]; Helianthus annuus, pre-emergence, 31 g ai/ha, 0 to 100 scale, 0 no effect, 100 complete control, read-out: Plant response rating, Sunflower): 0%
- pest or weed control at 62 g/ha ([1]; Helianthus annuus, pre-emergence, 62 g ai/ha, scale 0 to 100, read-out: Plant response rating, Sunflower): 0%
- Sunflower plant response rating ([1]; 8 g ai/ha, scale 0 to 100): 0
- Plant response rating, Russian Thistle ([2]; 16 g ai/ha, scale 0 to 100 (0 no effect, 100 complete control)): 0
- Plant response rating, Russian Thistle ([2]; 31 g ai/ha, 0 to 100 scale, 0 no effect, 100 complete control): 0
- Plant response rating, Russian Thistle ([2]; 62 g ai/ha, scale 0 to 100): 0
- Russian Thistle plant response rating ([2]; 8 g ai/ha, scale 0 to 100): 0
- Bromegrass, Downy plant response rating ([3]; postemergence, 0-100 scale): 0
- pest or weed control at 16 g/ha [3, 13]: 10%
- pest or weed control at 31 g/ha [3, 14]: 30%
- pest or weed control at 62 g/ha [3, 14]: 60%
- pest or weed control at 16 g/ha [3, 15]: 0%
- pest or weed control at 31 g/ha [3, 16]: 10%
- pest or weed control at 62 g/ha [3, 17]: 65%
- Bromegrass, Downy plant response rating ([3]; Preemergence, scale 0 to 100): 0
- Cocklebur plant response rating ([4]; postemergence, 0-100 scale): 0
- Cocklebur plant response rating ([4]; Preemergence, scale 0 to 100): 0
- pest or weed control at 16 g/ha [4, 13]: 0%
- pest or weed control at 31 g/ha [4, 14]: 0%
- pest or weed control at 62 g/ha [4, 14]: 0%
- pest or weed control at 16 g/ha [4, 15]: 0%
- pest or weed control at 31 g/ha [4, 16]: 0%
- pest or weed control at 62 g/ha [4, 17]: 10%
- Soybean plant response rating (soybean (Glycine max); postemergence, 0-100 scale): 0
- plant injury at 16 g/ha (soybean (Glycine max); Glycine max, post-emergence, Postemergence, scale 0 to 100, read-out: Plant response rating, Soybean): 0%
- plant injury at 62 g/ha (soybean (Glycine max); Glycine max, post-emergence, Postemergence, scale 0 to 100, 0 no effect, 100 complete control, read-out: Plant response rating, Soybean): 0%
- plant injury at 16 g/ha (soybean (Glycine max); Glycine max, pre-emergence, Preemergence, scale 0 to 100 (0 no effect, 100 complete control), read-out: Plant response rating, Soybean): 0%
- plant injury at 31 g/ha (soybean (Glycine max); Glycine max, pre-emergence, Preemergence, 31 g ai/ha, 0 to 100 scale, 0 no effect, 100 complete control, read-out: Plant response rating, Soybean): 0%
- plant injury at 62 g/ha (soybean (Glycine max); Glycine max, pre-emergence, Preemergence, scale 0 to 100, read-out: Plant response rating, Soybean): 0%
- Soybean plant response rating (soybean (Glycine max); Preemergence, scale 0 to 100): 0
- Ragweed plant response rating ([5]; postemergence, 0-100 scale): 0
- pest or weed control at 16 g/ha [5, 13]: 0%
- pest or weed control at 31 g/ha [5, 14]: 0%
- pest or weed control at 62 g/ha [5, 14]: 0%
- pest or weed control at 16 g/ha [5, 15]: 0%
- pest or weed control at 31 g/ha [5, 16]: 0%
- pest or weed control at 62 g/ha [5, 17]: 0%
- Ragweed plant response rating ([5]; Preemergence, scale 0 to 100): 0
- pest or weed control at 16 g/ha ([6]; Galium aparine, pre-emergence, 16 g ai/ha, scale 0 to 100 (0 no effect, 100 complete control), read-out: Plant response rating, Galium): 0%
- pest or weed control at 31 g/ha ([6]; Galium aparine, pre-emergence, 31 g ai/ha, 0 to 100 scale, 0 no effect, 100 complete control, read-out: Plant response rating, Galium): 0%
- pest or weed control at 62 g/ha ([6]; Galium aparine, pre-emergence, 62 g ai/ha, scale 0 to 100, read-out: Plant response rating, Galium): 0%
- Galium plant response rating ([6]; 8 g ai/ha, scale 0 to 100): 0
- Surinam Grass plant response rating ([7]; postemergence, 0-100 scale): 85
- Surinam Grass plant response rating ([7]; Preemergence, scale 0 to 100): 75
- pest or weed control at 16 g/ha ([7]; Urochloa decumbens, post-emergence, Postemergence, scale 0 to 100, read-out: Plant response rating, Surinam Grass): 85%
- pest or weed control at 62 g/ha ([7]; Urochloa decumbens, post-emergence, Postemergence, scale 0 to 100, 0 no effect, 100 complete control, read-out: Plant response rating, Surinam Grass): 100%
- pest or weed control at 16 g/ha ([7]; Urochloa decumbens, pre-emergence, Preemergence, scale 0 to 100 (0 no effect, 100 complete control), read-out: Plant response rating, Surinam Grass): 85%
- pest or weed control at 31 g/ha ([7]; Urochloa decumbens, pre-emergence, Preemergence, 31 g ai/ha, 0 to 100 scale, 0 no effect, 100 complete control, read-out: Plant response rating, Surinam Grass): 100%
- pest or weed control at 62 g/ha ([7]; Urochloa decumbens, pre-emergence, Preemergence, scale 0 to 100, read-out: Plant response rating, Surinam Grass): 100%
- Goosegrass plant response rating ([8]; postemergence, 0-100 scale): 0
- pest or weed control at 16 g/ha [8, 13]: 0%
- pest or weed control at 31 g/ha [8, 14]: 0%
- pest or weed control at 62 g/ha [8, 14]: 20%
- pest or weed control at 16 g/ha [8, 15]: 50%
- pest or weed control at 31 g/ha [8, 16]: 70%
- pest or weed control at 62 g/ha [8, 17]: 95%
- Goosegrass plant response rating ([8]; Preemergence, scale 0 to 100): 50
- Crabgrass, Large plant response rating ([9]; postemergence, 0-100 scale): 45
- pest or weed control at 16 g/ha [9, 13]: 60%
- pest or weed control at 31 g/ha [9, 14]: 80%
- pest or weed control at 62 g/ha [9, 14]: 80%
- pest or weed control at 16 g/ha [9, 15]: 65%
- pest or weed control at 31 g/ha [9, 16]: 70%
- pest or weed control at 62 g/ha [9, 17]: 95%
- Crabgrass, Large plant response rating ([9]; Preemergence, scale 0 to 100): 0
- Ryegrass, Italian plant response rating ([10]; postemergence, 0-100 scale): 70
- pest or weed control at 16 g/ha [10, 13]: 85%
- pest or weed control at 31 g/ha [10, 14]: 85%
- pest or weed control at 62 g/ha [10, 14]: 100%
- pest or weed control at 16 g/ha [10, 15]: 90%
- pest or weed control at 31 g/ha [10, 16]: 100%
- pest or weed control at 62 g/ha [10, 17]: 100%
- Ryegrass, Italian plant response rating ([10]; Preemergence, scale 0 to 100): 50
- Pigweed plant response rating ([11]; postemergence, 0-100 scale): 0
- pest or weed control at 16 g/ha [11, 13]: 0%
- pest or weed control at 31 g/ha [11, 14]: 0%
- pest or weed control at 62 g/ha [11, 14]: 0%
- pest or weed control at 16 g/ha [11, 15]: 0%
- pest or weed control at 31 g/ha [11, 16]: 0%
- pest or weed control at 62 g/ha [11, 17]: 0%
- Pigweed plant response rating ([11]; Preemergence, scale 0 to 100): 0
- Kochia plant response rating (kochia (Kochia scoparia); postemergence, 0-100 scale): 0
- Plant response rating, Kochia (kochia (Kochia scoparia); 16 g ai/ha, scale 0 to 100): 0
- Plant response rating, Kochia (kochia (Kochia scoparia); 31 g ai/ha, scale 0 to 100, 0 no effect, 100 complete control): 0
- Plant response rating, Kochia (kochia (Kochia scoparia); 62 g ai/ha, scale 0 to 100, 0 no effect, 100 complete control): 0
- Kochia plant response rating (kochia (Kochia scoparia); Preemergence, scale 0 to 100): 0
- Cupgrass, Woolly plant response rating ([12]; postemergence, 0-100 scale): 85
- pest or weed control at 16 g/ha [12, 13]: 95%
- pest or weed control at 31 g/ha [12, 14]: 98%
- pest or weed control at 62 g/ha [12, 14]: 98%
- pest or weed control at 16 g/ha [12, 15]: 70%
- pest or weed control at 31 g/ha [12, 16]: 85%
- pest or weed control at 62 g/ha [12, 17]: 100%
- Cupgrass, Woolly plant response rating ([12]; Preemergence, scale 0 to 100): 20

From patent US20100267561A1, “HERBICIDAL PYRIDAZINONE DERIVATIVES” (priority 2007, published 2010)
